Data on six compounds can be found in patent USRE35053E, “Amines useful in producing pharmaceutically active CNS compounds” (The Upjohn Company, priority 1992, dated 1995).

The structures appear in SMILES notation. Where a name gives a salt, the structure may show the parent alone.

Assay [1] has as its system AcylCoA:Cholesterol Acyltransferase (ACAT). Kind of assay: AcylCoA:Cholesterol Acyltransferase (ACAT) inhibition Assay. It counts as cell-based. The arrangement: key: compounds which inhibit ACAT activity equal to, or greater than, that of chlorpromazine are considered "active". Particulars: active = equal to or greater than chlorpromazine; Fu5AH cells preferred. From the text: ACAT esterifies arterial cholesterol which is a key reaction in the development of atherosclerosis. The procedure of Bell, Can. J. Blochem. 60. […] In the ACAT assay it is preferred to use Fu5AH cells, see Lipids 9, 526 (1974). According to this procedure, compounds which inhibit ACAT activity equal to, or greater than, that of chlorpromazine are considered "active".

In assay [2] the test system is serum and arterial cholesterol. Kind of assay: Antiatherosclerosis screen in Susceptible to Experimental Atherosclerosis (SEA) Japanese Quail. The format is in vivo. The conditions noted are these: SEA Japanese quail fed atherogenic diet; active = decrease >30 %. The method, then:
While not necessary, some minor modifications for extraction of cholesterol from the artery have been made. These are as follows: frozen arteries are homogenized in hexane/isopropanol (3/2) and the volume adjusted with Triton 100 solution (1.5% in hexane/isopropanol) to 7 ml. After standing 12 hr at 20°-25°, the supernatant, obtained by low speed centrifugation is evaporated until dry and then the residue is suspended in 0.5 ml of 5% Triton 100 in isopropanol. This suspension is incubated for 10 min at 45° to dissolve the material. This solution as well as the diluted serum samples are analyzed for cholesterol by standard clinical chemistry analyzer methods. According to the above procedure compounds which decrease serum or arterial cholesterol >30 % are considered to be "active".
Compounds which reduce serum and arterial cholesterol and are useful in treating atherosclerosis and its complications; for example, reduction of serum cholesterol by drugs reduces the incidence of coronary heart disease JAMA 251, 351 (1984) and JAMA 251, 365 (1984).

Assay [3] has as its system interleukin-1. Kind of assay: inhibition of interleukin-1 induced T cell proliferation assay. The format is cell-based. Particulars: interleukin-1; 10^-6 M. The text has this: The inhibition of interleukin-1 induced T cell proliferation assay, Proc. Nat. […] Since people with arthritis make excess interleukin 1, compounds which inhibit the activity of interleukin 1 are useful in the treatment of arthritis. According to this procedure compounds which inhibit the activity of interleukin 1 greater that 30% at 10^-6 M are considered to be "active".

Assay [4] has as its system mouse head injury. Put plainly: in vivo mouse head injury procedure of Hall, grip test. Particulars: statistically significant (p<0.05).
For assay [5], the system named is arachidonic acid. Put plainly: Arachidonic Acid Antagonism Assay (AAAA). It counts as in vivo, mouse (Charles River male CF-1). The conditions noted are these: mice. The gist of the method:
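Male CF-1 mice ([…]) received compound IV in 1.0% Tween-80/0.1% HCl in water. LD50 was determined by Spearman-Karber (log dose interval 0.05, N-6); an LD50 raised outside the control 95% confidence interval counted as active.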

The subject of assay [6] is MDA formation in rat brain synaptosomes. Kind of assay: Malonyldialdehyde (MDA) Formation Assay (lipid peroxidation). The format is biochemical. The conditions noted are these: active = 50% inhibition or more at 200 μM or less. From the text:
The MDA assays of Buege and Aust, Methods in Enzymology, Fleisher and Packer Editors. Academic Press, 1978, New York, Vol LII, p 302-310 and Kohn and Liversedge, J. Pharmacol. Exp. Ther. 82. […] Since iipid peroxidation is involved in the pathophysiology of central nervous system trauma, compounds which inhibit MDA formation are useful in treating the conditions listed below.
While not necessary to determine MDA formation, the above assays have been modified as follows: rat brain synaptosomes are prepared as described in the Example about the conjugated diene assay, except that the final wash of the synaptosomes and final suspension are in physiological (normal) saline in which the pH has been adjusted to 7 0. The synaptosomes are incubated for 10 min at 37° in physiological (normal) saline pH 7.0 (total volume=100 ul) containing; 10 ul synaptosomal suspension. 10% DMSO plus or minus drug. 150 uM Fe^+++ and 50 uM Fe^++. The incubation is started by the rapid addition of iron to the otherwise complete reaction. The iron solutions are prepared fresh as ferric chloride and ferrous ammonium sulfate in argon-purged water. Following the 10 min incubation, the reaction is stopped by the addition of 500 ul ice-cold 12% trichloroacetic acid prepared in 0.5 N hydrochloric acid. Water (300 ul) is then added along with 100 ul of freshly prepared thiobarbituric acid (3.3% in 0.5N sodium hydroxide) and 10 ul of 5mM desferrioxamine. The sample is then heated in a boiling water bath for 20 minutes. The samples are cooled and centrifuged for 15 minutes at 1500 xg and the absorbance of the supernatant fraction is read at 532 nm. The % inhibition of MDA formation is calculated by dividing the absorbance of sample containing drug by the absorbance of samples incubated without drug. Reaction blanks are samples incubated in the absence of iron A compound that inhibits MDA formation by 50% or more at a concentration of 200μM or less is considered "active".

Assay [7] deals with induced mucous secretions. Put plainly: inhibition of mucous secretion assay of Johnson. The conditions noted are these: inhibit or block enhancement of induced mucous secretions. The text has this:
The inhibition of mucous secretion assay of Johnson Int. […] According to this procedure compounds which inhibit or block enhancement of induced mucous secretions when tested are considered to be "active".

Assay [8] deals with aspirin induced ulcer. Put plainly: aspirin/cold induced ulcer assay of Rainsford. It counts as in vivo. The conditions noted are these: active = 50% or more reduction of ulcer index.
In assay [9] the test system is angiogenesis. Put plainly: fertile egg or chick embryo assay of Folkman (inhibition of angiogenesis / tumor growth). Particulars: chick embryo; 50 μg/10 μl in the presence of heparin. The format is in vivo. Here is the method: According to this procedure compounds which are considered to be "active" (i.e, antiangiogenic) give an avascular zone of 4 mm or greater in some embryos when tested at 50 μg/10 μl in the presence of 50 μg/10 μ of heparin.

As to `C[C@]12CCC(=O)C=C1CC[C@@H]1C2=CC[C@@]2(C)[C@H]1CC[C@]2(O)C(=O)CN1CCN(c2ccccn2)CC1.Cl` [Example 3, 17α-Hydroxy-21-[4-(2-pyridinyl) 1 piperazinyl]pregna-4,9(11)-diene-3,20dione hydrogen chloride salt], the “inhibition of ACAT” value in assay [1] is given as “active”. In addition, in [2], the “reduction of arterial cholesterol” value is “demonstrates reduction of serum and arterial cholesterol”; the “reduction of serum cholesterol” value is “demonstrates reduction of serum and arterial cholesterol”.

As for `C[C@]12CCC(=O)C=C1CC[C@@H]1C2=CC[C@@]2(C)[C@H]1CC[C@]2(O)C(=O)CN1CCOCC1` [Example 93, 17α-hydroxy-21-(4-morpholino)-pregna-4,9(11)-diene-3,20-dione(E)-2-butanedioate (1:1) salt], the “% Inhibition at 10^-6 M” value in assay [3] was 62%. The “% Increase in 1 hr Post-Injury Grip Test Scores After 3 mg/kg” value in [4] worked out at 134.5%. The “arachidonic acid antagonism (elevation of LD50 of arachidonic acid)” value in assay [5] (IV, 15 min before sodium arachidonate, outside 95% confidence interval of control LD50) is “demonstrate arachidonic acid antagonism”.

For the compound `CCN(CC)c1nc(N2CCCCC2)cc(N2CCN(CC(=O)[C@@]3(O)CC[C@H]4[C@@H]5CCC6=CC(=O)CC[C@]6(C)C5=CC[C@@]43C)CC2)n1.Cl.O` [Example 17, 17α-Hydroxy-21-[4-[2-(diethylamino)-6-(1-piperidinyl)-4-pyrimidinyl]-1-piperazinyl]pregna-4,9(11)-diene-3,20-dione hydrochloride hydrate], the “inhibition of ACAT” value in assay [1] is “active”. For the same compound, in assay [5] (100 mg/kg, LD50 of sodium arachidonate), the “% of Control LD50” value is recorded as 150%. Besides, in assay [6], the “inhibition of MDA formation” value is reported as “demonstrate such activity”.

As for `CCNc1cccc(N2CCN(CC(=O)[C@H]3[C@H](C)C[C@H]4[C@@H]5CCC6=CC(=O)C=C[C@]6(C)C5=CC[C@@]43C)CC2)n1` [Example 127, 21-[4-[6-(Ethylamino)-2-pyridinyl]piperazinyl]-16α-methylpregna-1,4,9(11)-triene-3,20-dione hydrochloride], in [4], the “% Increase in 1 hr Post-Injury Grip Test Scores After 3 mg/kg” value is reported as 200.8%.

With `CCN(CC)c1cc(N2CCN(CC(=O)[C@@]3(O)[C@H](C)C[C@H]4[C@@H]5CCC6=CC(=O)C=C[C@]6(C)C5=CC[C@@]43C)CC2)nc(N(CC)CC)n1.Cl.O` [Example 18, 21-[4-[2,6-Bis(diethylamino)-4-pyrimidinyl]-1-piperazinyl]-17α-hydroxy-16α-methylpregna-1,4,9(11)-triene-3,20-dione hydrochloride hydrate], in [7], the “inhibition of mucous secretion” value was “demonstrate such activity”. In addition, the “inhibition of ACAT” value in [1] is listed as “active”.

As to `CCN(CC)c1cc(N2CCN(CC(=O)[C@@]3(O)CC[C@H]4[C@@H]5CCC6=CC(=O)CC[C@]6(C)C5=CC[C@@]43C)CC2)nc(N(CC)CC)n1` [Example 16, 17α-Hydroxy-21-[4-[2,6-bis(diethylamino)pyrimidinyl]-1-piperazinyl]pregna4,9(11)-diene-3,20-dione dihydro-chloridehydrate], in [3], the “% Inhibition at 10^-6 M” value came to 84%. In addition, the anti-ulcer activity result in [8] is “demonstrates anti-ulcer activity”. Also, the “inhibition of mucous secretion” value in assay [7] is reported as “demonstrate such activity”. The “% of Embryos with 4 mm or Greater A vascular Zone” value in assay [9] is recorded as 91%.

The term % Inhibition denotes the percentage by which the read-out fell short of the control.
